Source: patent US20030190322A1, “Immunostimulating properties of a fragment of tgf-beta” (priority 2000, published 2003)
No end group written: not given here.

What was measured:
[1] = system: parvovirus peptide; test: ELISA antibody titre to parvovirus peptide in rabbits, TGF-29 dose experiment with Titermax adjuvant (Example 3); type: in vivo; settings: group with highest dose TGF-29 (20 ug) plus 100 μg parvovirus peptide and Titermax adjuvant (preparation Iris); one rabbit, bleeding T3, 6 weeks after first immunisation
Method: Both preparations were subcutaneously injected into 2 groups of rabbits. Each injected dose was 0.1 mL and the preparations for a resulting volume between 0.4 and 0.5 mL was made as follows:
Each injected dose of 0.1 mL therefore contains approximate 4 ug TGF-29 and 100 ug parvovirus peptide.
Into the same vial 154 microliter H2O was added and the combined fractions subsequently mixed by stirring a few seconds and then transferred in drops, while stirring, into a small 1.8 mL plast vial preloaded with 250 microliter Titermax adjuvant. The resulting volume of the water-in-oil emulsion volume was a little more than 0.4 mL. Each injected dose of 0.1 mL therefore contains approximate 20 μg TGF-29 and 100 μg parvovirus peptide.
The rabbits were then immunised according to the normal standard immunisation procedure for antibody production in rabbits at a legal laboratory animal facility.
Before immunisation, a pre-immunisation serum sample (To) of each rabbit was collected. […]
The serum samples were analysed on an ELISA plate according to standard laboratory operations: Coating the plate bottom with parvo virus peptide derivative overnight, washings, incubation with serial dilutions of all serum samples, washings, incubation with HRP-Goat anti Rabbit 1 g, washings, incubation with substrate, stop reaction with acid, and reading of the plate.

[2] = system: parvovirus peptide; test: ELISA antibody titre to parvovirus peptide in rabbits immunised with Parv or Parv+TGF-29 (Example 1); type: in vivo; settings: subcutaneous, 3 immunisations at 2 week intervals, freunds incomplete adjuvant
Method: Both preparations were subcutaneously injected into 2 groups of rabbits. The con-tent of each injected dose of 0.2 mL were;
50 microgram parvovirus peptide was dissolved in 0.05 mL PBS and subsequently mixed with 0.05 mL PBS by stirring. The combined fractions were then mixed with 0.1 mL freunds incomplete adjuvant by stirring.
50 microgram parvovirus peptide was dissolved in 0.05 mL PBS and subsequently mixed with 100 microgram of a crude fraction comprising TGF-29 dissolved in 0.05 mL PBS, and then the combined fractions were mixed with 0.1 mL freunds incomplete adjuvant by stirring,
The rabbits were immunised by subcuteous injection according to normal standard immunisation procedures for antibody production in rabbits at a legal laboratory animal facility.
Before immunisation, a pre-immunisation serum sample (T0) of each rabbit were collected. Two weeks after the last of 3 immunisations (given at 2 week intervals) an immune serum sample (T1) was collected from each rabbit. […]
The serum samples were analysed on an ELISA plate according to standard laboratory operations. Coating the plate bottom with parvo virus peptide derivative overnight, washings, incubation with serial dilutions of all serum samples, washings, incubation with HRP-Goat anti Rabbit 1 g, washings, incubation with substrate, stop reaction with acid, and reading of the plate.

Substance	titer to the parvovirus peptide compared with T0 serum (highest of all bleedings) [1]	antibody titre to the parvovirus peptide, immune serum samples compared with T0 sera [2]
ALDAAYCFRNVQDNCCLRPLYIDFKRDLG (cysteine pairing not given here) [TGF-29]	more than three 5-fold serial antiserum dilutions better than the corresponding T0 serum	–
acetyl-CDGAVQPDGGQPAVRNER-amide (Ac-CDGAVQPDGGQPAVRNER-NH2) [Parv]	–	Non-detectable or less antibody titre to the parvovirus peptide than in the corresponding to sera
